Test system: gene expression in four canine cell lines: CCL34 (kidney), CRL1430 (thymus), CCL183 (bone), CTAC (thyroid)
Assay: Effect of test substances or ingredients on gene expression in canine cell lines (Affymetrix Canine-1 and Canine-2 gene chips)
Assay type: cell-based
Conditions: for Direction of gene expression, probe 1605486_at: pyruvate dehydrogenase kinase 4 mRNA; for Direction of gene expression, probe 1605486_at / Direction of gene expression, probe 6282824_at: two concentrations per ingredient (Table 6), vs solvent control; for Direction of gene expression, probe 6282824_at: Canis familiaris carnitine palmitoyl transferase I isoform (CPT1) mRNA, human BC000185; for Direction of gene expression, probe 6283403_at: Sus scrofa carnitine palmitoyltransferase I mRNA, human AK172798
Excerpt: Cells cultured from mammalian cell lines are used to isolate good quality RNA which is then used for future downstream genomic analysis. All work related to the culturing of the cells is to be done under strict aseptic conditions. Procedure: Removing Cells from the OptiCell Chamber (proceed one OptiCell at a time). Check the cells under a microscope to ensure that the cells are alive before isolating RNA. Remove and discard the cell culture medium. Using the OptiCell knife cut away the top membrane exposing the cells on the lower membrane. Wash the membrane to which the cells are attached three times with 1X PBS. Pipette 600 uL of the Buffer RLT solution (containing R-Mercaptoethanol) onto the center of the membrane to which the cells are attached. Using the cell scraper, gently spread the Buffer RLT over the entire surface of the membrane, and then collect the liquid in one corner. Pipette off the entire volume of Buffer RLT and place into a QIAshredder spin column. RNA Isolation: Centrifuge the QIAshredder spin columns at 14,000 rpm for 2 minutes. Discard the spin column but keep the collection tube and its contents. Add 600 uL of 70% ethanol to the collection tube and mix well by pipetting (the total volume now=1.2 mL). Transfer 600 uL of the cell lysate to an RNeasy mini column and centrifuge for 15 seconds at 14,000 rpm. Discard the flow through but keep the collection tube and the spin column. Transfer the remaining volume of cell lysate (˜600 uL) to the spin column and repeat the centrifugation. Discard the flow through but keep the collection tube and the spin column. Add 700 uL Buffer RW1 to the spin column. Centrifuge for 15 seconds at 14,000 rpm to wash the column. Discard the flow through and the collection tube. Transfer the spin column to a new 2 mL collection tube and add 500 uL Buffer RPE to the column. Centrifuge for 15 seconds at 14,000 rpm. Discard the flow through, keep the collection tube/column. Add another 500 uL Buffer RPE to the column. Centrifuge for 2 minutes at 14,000 rpm. Transfer the spin column to a 1.5 mL collection tube. […] Store the final RNA at −70° C. Gene expression was analyzed using Affymetrix Canine 1 and Canine 2 GeneChip® Arrays available commercially from Affymetrix, Inc., Santa Clara, Calif. 95051. Total RNA is reverse transcribed into cDNA. The cDNA is used to generate cRNA which is fragmented and used as probes for GeneChip hybridization. The gene chip is washed and the hybridization signal is measured with an Affymetrix laser scanner. The hybridization data is then validated and normalized for further analysis. Procedure: All procedures follow exactly as described in GeneChip Expression Analysis Technical Manual (Affymetrix Copyright 1999-2003). Use 5 microgram of total RNA for the first strand cDNA synthesis. Use either Peltier Thermal Cycler PTC-200 or heat block for temperature control on reactions and probe denaturing. The quality control is performed using RNA […] chips with BioAnalyer 2100. Use 100 Format (Midi Array) for the canine genechip. […] TAGs; ALA: EPA: DHA; linoleic acid; stearic acid (SA), conjugated linoleic acid (CLA), GLA; arachidonic acid; lecithin; vitamin A, vitamin D, vitamin E, vitamin K, riboflavin, niacin, pyridoxine, pantothenic acid, folic acid, biotin vitamin C, catechin, quercetin, theaflavin; ubiquinone: lycopene, lycoxanthin; resveratrol; α-lipoic acid; L-carnitine; D-limonene; glucosamine; S-adenosylmethionine; chitosan, various materials containing one or more of these compounds, and various combination thereof on gene expression in four canine cell lines and appropriate controls. The solvent at the higher of the two concentrations was used as a control. Four canine cell lines are used: CCL34 (kidney), CRL1430 (thymus), CCL183 (bone) (Obtained from The American Tissue Culture Collection) and CTAC (thyroid) (See, Measurement of NK Activity in Effector Cells Purified from Canine Peripheral Lymphocytes. Veterinary Immunology and Immunopathology, 35 (1993) 239-251). […]

CC/C=C\C/C=C\C/C=C\CCCCCCCC(=O)O [ALA, α-linolenic acid]
Direction of gene expression, probe 6282455_at (Canis familiaris type I collagen pre-pro-alpha1(I) chain (COL1A1) mRNA, human AB209597): DOWN (down-regulated if its value is <1/1.5 (for across all 4 cell lines analysis) or <½ (for within cell lines analysis)) | Direction of gene expression, probe 1605486_at (human AK096428): UP (up-regulated if it is >1.5 (for across all 4 cell lines analysis) or >2 (for within cell lines analysis))

CCCCC/C=C\C/C=C\C/C=C\C/C=C\CCCC(=O)O [ARA, arachidonic acid]
Direction of gene expression, probe 6282824_at: UP (up-regulated if it is >1.5 (for across all 4 cell lines analysis) or >2 (for within cell lines analysis)) | Direction of gene expression, probe 1602749_at (Homo sapiens BAC clone RP11-44D21 from 4, human AC108866): UP (up-regulated if it is >1.5 (for across all 4 cell lines analysis) or >2 (for within cell lines analysis)) | Direction of gene expression, probe 6283403_at: UP (up-regulated if it is >1.5 (for across all 4 cell lines analysis) or >2 (for within cell lines analysis)) | Direction of gene expression, probe 1605486_at (human AK096428): UP (up-regulated if it is >1.5 (for across all 4 cell lines analysis) or >2 (for within cell lines analysis))

CC/C=C\C/C=C\C/C=C\C/C=C\C/C=C\C/C=C\CCC(=O)O [DHA, docosahexaenoic acid]
Direction of gene expression, probe 6282824_at: UP (up-regulated if it is >1.5 (for across all 4 cell lines analysis) or >2 (for within cell lines analysis)) | Direction of gene expression, probe 6287734_at (Canis familiaris similar to Na/Pi cotransporter 4 (LOC478741) mRNA, human BC017952): UP (up-regulated if it is >1.5 (for across all 4 cell lines analysis) or >2 (for within cell lines analysis)) | Direction of gene expression, probe 1605486_at (human AK096428): UP (up-regulated if it is >1.5 (for across all 4 cell lines analysis) or >2 (for within cell lines analysis))

CC/C=C\C/C=C\C/C=C\C/C=C\C/C=C\CCCC(=O)O [EPA, eicosapentaenoic acid]
Direction of gene expression, probe 6283403_at: UP (up-regulated if it is >1.5 (for across all 4 cell lines analysis) or >2 (for within cell lines analysis)) | Direction of gene expression, probe 1605486_at (human AK096428): UP (up-regulated if it is >1.5 (for across all 4 cell lines analysis) or >2 (for within cell lines analysis)) | Direction of gene expression, probe 6283329_at (similar to secreted frizzled-related protein 4, human AC018634): DOWN (down-regulated if its value is <1/1.5 (for across all 4 cell lines analysis) or <½ (for within cell lines analysis))

CCCCC/C=C\C/C=C\CCCCCCCC(=O)O [LA, linoleic acid]
Direction of gene expression, probe 6282385_at (Canis familiaris Na+-dependent glutamate transporter (GLAST) mRNA, human D26443): DOWN (down-regulated if its value is <1/1.5 (for across all 4 cell lines analysis) or <½ (for within cell lines analysis)) | Direction of gene expression, probe 6282824_at: UP (up-regulated if it is >1.5 (for across all 4 cell lines analysis) or >2 (for within cell lines analysis)) | Direction of gene expression, probe 1605486_at (human AK096428): UP (up-regulated if it is >1.5 (for across all 4 cell lines analysis) or >2 (for within cell lines analysis))

CCCCCCCCCCCCCCCCCC(=O)O [SA, stearic acid]
Direction of gene expression, probe CfaAffx.9845.1.S1_s_at (Canis familiaris similar to leucine rich repeat containing 45 (LOC483375), human NM_144999): UP (up-regulated if it is >1.5 (for across all 4 cell lines analysis) or >2 (for within cell lines analysis)) | Direction of gene expression, probe Cfa.2282.1.S1_at (Canis familiaris similar to pyruvate dehydrogenase kinase isoform 4 (LOC482310) mRNA, human AK096428): UP (up-regulated if it is >1.5 (for across all 4 cell lines analysis) or >2 (for within cell lines analysis)) | Direction of gene expression, probe Cfa.791.4.A1_at (Canis familiaris similar to ribosomal protein L24, transcript variant 2 (LOC478547), human NM_000986): UP (up-regulated if it is >1.5 (for across all 4 cell lines analysis) or >2 (for within cell lines analysis))

conjugated linoleic acid [CLA]
Direction of gene expression, probe Cfa.10478.1.A1_at (Bos taurus similar to Type II inositol-1,4,5-trisphosphate 5-phosphatase precursor (LOC538291), human AC005691): UP (up-regulated if it is >1.5 (for across all 4 cell lines analysis) or >2 (for within cell lines analysis)) | Direction of gene expression, probe Cfa.11267.1.A1_at (Homo sapiens cDNA clone IMAGE: 4456146, human BC024645): DOWN (down-regulated if its value is <1/1.5 (for across all 4 cell lines analysis) or <½ (for within cell lines analysis)) | Direction of gene expression, probe Cfa.11358.1.A1_at (Homo sapiens solute carrier family 20 (phosphate transporter), member 2 (SLC20A2) mRNA, human AF170802): UP (up-regulated if it is >1.5 (for across all 4 cell lines analysis) or >2 (for within cell lines analysis))
